Molecular target: human PCSK9 (Homo sapiens, UniProt Q8NBP7)
Assay: PCSK9 ligand binding TR-FRET assay (interference with binding of human PCSK9 to human LDLR)
Details: for Max % inhibition: PCSK9 FRET assay, efficacy (Amax), 100% = 1 uM unlabeled human PCSK9, 0% = DMSO; for IC50: TR-FRET, human PCSK9 Alexa Fluor 647 / human LDLR extracellular domain-Europium Kryptate, read-out: PCSK9 FRET Assay IC50
How it was run: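 Threefold compound dilutions were pre-incubated 30 min with PCSK9, after which 4 nM Europium Kryptate-tagged human LDLR ectodomain was added for a further 2 h.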

Chain of human PCSK9 (Q8NBP7 153-692): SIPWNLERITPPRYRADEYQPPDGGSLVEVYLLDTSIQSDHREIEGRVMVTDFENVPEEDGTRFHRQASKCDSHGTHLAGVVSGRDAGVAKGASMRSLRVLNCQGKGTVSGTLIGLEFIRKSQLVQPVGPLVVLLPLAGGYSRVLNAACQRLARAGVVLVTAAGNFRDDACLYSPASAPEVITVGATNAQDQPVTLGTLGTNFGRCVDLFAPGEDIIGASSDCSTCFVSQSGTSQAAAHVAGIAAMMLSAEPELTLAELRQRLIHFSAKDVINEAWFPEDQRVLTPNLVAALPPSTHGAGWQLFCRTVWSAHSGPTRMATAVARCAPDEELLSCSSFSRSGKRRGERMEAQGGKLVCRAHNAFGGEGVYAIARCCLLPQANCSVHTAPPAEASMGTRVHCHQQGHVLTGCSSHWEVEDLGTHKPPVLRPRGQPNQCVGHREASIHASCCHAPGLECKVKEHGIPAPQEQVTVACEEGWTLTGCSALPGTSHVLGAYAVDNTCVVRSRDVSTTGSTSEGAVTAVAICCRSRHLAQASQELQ
Chain of human PCSK9 (Q8NBP7 31-152 partner limits assumed): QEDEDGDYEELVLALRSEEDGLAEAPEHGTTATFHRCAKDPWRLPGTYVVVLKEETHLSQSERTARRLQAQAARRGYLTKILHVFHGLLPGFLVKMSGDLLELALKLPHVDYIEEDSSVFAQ

| Max % inhibition [%] | IC50 [nM] | SMILES |
| --- | --- | --- |
| 103.04 | 1.8 | C[C@H]1C(=O)N[C@@H](COC(F)F)C(=O)N(C)[C@@H](Cc2ccc(Cl)cc2)CC(=O)N[C@H]2CCCC[C@@H]2N(C)C(=O)[C@H](Cc2ccccc2)CC(=O)N1Cc1ccc(Cl)cc1Oc1ccc(-c2cnc(CN(C)C)n2C)cc1 [Compound 79, (4S,7S,10S,14R,16aS,20aS)-14-benzyl-11-(4-chloro-2-(4-(2-((dimethylamino)methyl)-1-methyl-1H-imidazol-5-yl)phenoxy)benzyl)-4-(4-chlorobenzyl)-7-((difluoromethoxy)methyl)-5,10,16-trimethylhexadecahydrobenzo[l][1,4,7,11,14]pentaazacyclooctadecine-2,6,9,12,15(3H)-pentaone] |
| 100.34 | 7 | COC[C@@H]1NC(=O)[C@H](C)N(Cc2ccc(Cl)cc2Oc2ccc(-c3cnc(CN(C)C)n3C)cc2)C(=O)C[C@@H](Cc2ccccc2)C(=O)N(C)C2(CC2)CNC(=O)C[C@H](Cc2ccc(Cl)cc2)N(C)C1=O [Compound 144, (6R,10S,13S,16S)-6-benzyl-9-(4-chloro-2-(4-(2-((dimethylamino)methyl)-1-methyl-1H-imidazol-5-yl)phenoxy)benzyl)-16-(4-chlorobenzyl)-13-(methoxymethyl)-4,10,15-trimethyl-4,9,12,15,19-pentaazaspiro[2.17]icosane-5,8,11,14,18-pentaone] |
| 72.66 | 247 | COC[C@@H]1NC(=O)[C@H](C)N(Cc2ccc(Cl)cc2Oc2ccc(-c3cnc([C@H](C)N(C)C)n3C)cc2)C(=O)C[C@@H](Cc2ccccc2)C(=O)N(C)[C@H]2CCCC[C@@H]2NC(=O)C[C@H](Cc2ccc(Cl)cc2)N(C)C1=O [Compound 241, (4S,7S,10S,14R,16aS,20aS)-14-benzyl-11-(4-chloro-2-(4-(2-((S)-1-(dimethylamino)ethyl)-1-methyl-1H-imidazol-5-yl)phenoxy)benzyl)-4-(4-chlorobenzyl)-7-(methoxymethyl)-5,10,16-trimethylhexadecahydrobenzo[l][1,4,7,11,14]pentaazacyclooctadecine-2,6,9,12,15(3H)-pentaone] |
| 93.20 | 2 | COC[C@@H]1NC(=O)[C@H](C)N(Cc2ccc(Cl)cc2Oc2ccc(-c3cnc(CN4CCOCC4)n3C)cc2)C(=O)C[C@@H](Cc2ccccc2)C(=O)N(C)[C@@H](C)CNC(=O)C[C@H](Cc2ccc(Cl)cc2)N(C)C1=O [Compound 205, (2S,5S,8S,13S,16R)-16-benzyl-1-(4-chloro-2-(4-(1-methyl-2-(morpholinomethyl)-1H-imidazol-5-yl)phenoxy)benzyl)-8-(4-chlorobenzyl)-5-(methoxymethyl)-2,7,13,14-tetramethyl-1,4,7,11,14-pentaazacyclooctadecane-3,6,10,15,18-pentaone] |
| 96.16 | 5 | COC[C@@H]1NC(=O)[C@H](C)N(Cc2ccc(Cl)cc2Oc2ccc(-c3cncc(C4=CCNCC4)c3)cc2)C(=O)C[C@@H](Cc2ccccc2)C(=O)N(C)[C@@H](C)CNC(=O)C[C@H](Cc2ccc(Cl)cc2)N(C)C1=O [Compound 136, (2S,5S,8S,13S,16R)-16-benzyl-1-(4-chloro-2-(4-(1′,2′,3′,6′-tetrahydro-[3,4′-bipyridin]-5-yl)phenoxy)benzyl)-8-(4-chlorobenzyl)-5-(methoxymethyl)-2,7,13,14-tetramethyl-1,4,7,11,14-pentaazacyclooctadecane-3,6,10,15,18-pentaone] |
| 95.40 | 3.3 | COC[C@@H]1NC(=O)[C@H](C)N(Cc2ccc(Cl)cc2Oc2ccc(-c3cnc(CN4CCCC4)n3C)c(F)c2F)C(=O)C[C@@H](Cc2ccccc2)C(=O)N(C)[C@@H](C)CNC(=O)C[C@H](Cc2ccc(Cl)cc2)N(C)C1=O [Compound 299, (2S,5S,8S,13S,16R)-16-benzyl-1-(4-chloro-2-(2,3-difluoro-4-(1-methyl-2-(pyrrolidin-1-ylmethyl)-1H-imidazol-5-yl)phenoxy)benzyl)-8-(4-chlorobenzyl)-5-(methoxymethyl)-2,7,13,14-tetramethyl-1,4,7,11,14-pentaazacyclooctadecane-3,6,10,15,18-pentaone] |
| 96.56 | 2.7 | COC[C@@H]1NC(=O)[C@H](CCC(=O)OC(C)(C)C)N(Cc2ccc(Cl)cc2Oc2ccc(-c3cnc(CN(C)C)n3C)cc2)C(=O)C[C@@H](Cc2ccccc2)C(=O)N(C)[C@H]2CCCC[C@@H]2NC(=O)C[C@H](Cc2ccc(Cl)cc2)N(C)C1=O [Compound 46, tert-butyl 3-((4S,7S,10S,14R,16aS,20aS)-14-benzyl-11-(4-chloro-2-(4-(2-((dimethylamino)methyl)-1-methyl-1H-imidazol-5-yl)phenoxy)benzyl)-4-(4-chlorobenzyl)-7-(methoxymethyl)-5,16-dimethyl-2,6,9,12,15-pentaoxodocosahydrobenzo[l][1,4,7,11,14]pentaazacyclooctadecin-10-yl]propanoate] |
| 99.00 | 2.01 | COC[C@@H]1NC(=O)[C@H](C)N(Cc2ccc(Cl)cc2Oc2c(F)cc(-c3cnc(CN4CCCC4)n3C)cc2F)C(=O)C[C@@H](Cc2ccccc2)C(=O)N(C)[C@@H](C)CNC(=O)C[C@H](Cc2ccc(Cl)cc2)N(C)C1=O [Compound 298, (2S,5S,8S,13S,16R)-16-benzyl-1-(4-chloro-2-(2,6-difluoro-4-(1-methyl-2-(pyrrolidin-1-ylmethyl)-1H-imidazol-5-yl)phenoxy)benzyl)-8-(4-chlorobenzyl)-5-(methoxymethyl)-2,7,13,14-tetramethyl-1,4,7,11,14-pentaazacyclooctadecane-3,6,10,15,18-pentaone] |
| 100.92 | 0.6 | C=CC[C@@H]1CC(=O)N(Cc2ccc(Cl)cc2Oc2ccc(-c3cnc(CN(C)C)n3C)cc2)[C@@H](C)C(=O)N[C@@H](COC)C(=O)N(C)[C@@H](Cc2ccc(Cl)cc2)CC(=O)N[C@@H](C)[C@H](C)N(C)C1=O [Compound 289, (2S,5S,8S,12S,13S,16R)-16-allyl-1-(4-chloro-2-(4-(2-((dimethylamino)methyl)-1-methyl-1H-imidazol-5-yl)phenoxy)benzyl)-8-(4-chlorobenzyl)-5-(methoxymethyl)-2,7,12,13,14-pentamethyl-1,4,7,11,14-pentaazacyclooctadecane-3,6,10,15,18-pentaone] |
| 61.54 | 64.6 | COC[C@@H]1NC(=O)[C@H](C)N(Cc2ccc(Cl)cc2Oc2ccc(-c3cnc(OC(C)C)n3C)cc2)C(=O)C[C@@H](Cc2ccccc2)C(=O)N(C)[C@@H](C)CNC(=O)C[C@H](Cc2ccc(Cl)cc2)N(C)C1=O [Compound 92, (2S,5S,8S,13S,16R)-16-benzyl-1-(4-chloro-2-(4-(2-isopropoxy-1-methyl-1H-imidazol-5-yl)phenoxy)benzyl)-8-(4-chlorobenzyl)-5-(methoxymethyl)-2,7,13,14-tetramethyl-1,4,7,11,14-pentaazacyclooctadecane-3,6,10,15,18-pentaone] |
| 102.49 | 2.2 | CC[C@H]1C(=O)N[C@@H](CO)C(=O)N(C)[C@@H](Cc2ccc(Cl)cc2)CC(=O)NC[C@H](C)N(C)C(=O)[C@H](Cc2ccccc2)CC(=O)N1Cc1ccc(Cl)cc1Oc1ccc(-c2cnc(CN(C)C)n2C)cc1 [Compound 207, (2S,5S,8S,13S,16R)-16-benzyl-1-(4-chloro-2-(4-(2-((dimethylamino)methyl)-1-methyl-1H-imidazol-5-yl)phenoxy)benzyl)-8-(4-chlorobenzyl)-2-ethyl-5-(hydroxymethyl)-7,13,14-trimethyl-1,4,7,11,14-pentaazacyclooctadecane-3,6,10,15,18-pentaone] |
| 105.53 | 3 | COC[C@@H]1NC(=O)[C@H](C)N(Cc2ccc(Cl)cc2Oc2ccc(-c3cnc(CN(C)C)n3C)cn2)C(=O)C[C@@H](Cc2ccccc2)C(=O)N(C)[C@H]2CCCC[C@@H]2NC(=O)C[C@H](Cc2ccc(Cl)cc2)N(C)C1=O [Compound 273, (4S,7S,10S,14R,16aS,20aS)-14-benzyl-11-(4-chloro-2-((5-(2-((dimethylamino)methyl)-1-methyl-1H-imidazol-5-yl)pyridin-2-yl)oxy)benzyl)-4-(4-chlorobenzyl)-7-(methoxymethyl)-5,10,16-trimethylhexadecahydrobenzo[l][1,4,7,11,14]pentaazacyclooctadecine-2,6,9,12,15(3H)-pentaone] |
| 52.86 | 113 | C[C@H]1CNC(=O)C[C@H](Cc2ccc(Cl)cc2)NC(=O)[C@H](CF)NC(=O)[C@H](C)N(Cc2ccc(Cl)cc2Oc2ccc(-c3cnc(CN4CCCC4)n3C)cc2)C(=O)C[C@@H](Cc2ccccc2)C(=O)N1C [Compound 25, (2S,5R,8S,13S,16R)-16-benzyl-1-(4-chloro-2-(4-(1-methyl-2-(pyrrolidin-1-ylmethyl)-1H-imidazol-5-yl)phenoxy)benzyl)-8-(4-chlorobenzyl)-5-(fluoromethyl)-2,13,14-trimethyl-1,4,7,11,14-pentaazacyclooctadecane-3,6,10,15,18-pentaone] |
| 100.41 | 1.7 | C=CC[C@@H]1CC(=O)N(Cc2ccc(C)cc2Oc2ccc(-c3cnc(CN(C)C)n3C)cc2)[C@@H](C)C(=O)N[C@@H](COC)C(=O)N(C)[C@@H](Cc2ccc(Cl)cc2)CC(=O)N[C@@H](C)[C@H](C)N(C)C1=O [Compound 107, (2S,5S,8S,12S,13S,16R)-16-allyl-8-(4-chlorobenzyl)-1-(2-(4-(2-((dimethylamino)methyl)-1-methyl-1H-imidazol-5-yl)phenoxy)-4-methylbenzyl)-5-(methoxymethyl)-2,7,12,13,14-pentamethyl-1,4,7,11,14-pentaazacyclooctadecane-3,6,10,15,18-pentaone] |

— patent publication US20230089867A1, “CYCLIC PENTAMER COMPOUNDS AS PROPROTEIN CONVERTASE SUBTILISIN/KEXIN TYPE 9 (PCSK9) INHIBITORS FOR THE TREATMENT OF METABOLIC DISORDER” (Novartis AG, priority 2018, published 2023)
